Assay results taken from ChEMBL document CHEMBL1130950, “Synthesis and structure-activity relationship of substituted 1,2,3,4-tetrahydroisoquinolines as N-type calcium channel blockers” (Bioorg Med Chem Lett, 1998).

What follows are compounds tested against Voltage-dependent N-type calcium channel subunit alpha-1B (Homo sapiens, UniProt Q00975) (assay: Inhibition of N-type calcium channel in IMR-32 human neuroblastoma cells).
Assay type: cell-based

Voltage-dependent N-type calcium channel subunit alpha-1B, sequence (Q00975 whole entry): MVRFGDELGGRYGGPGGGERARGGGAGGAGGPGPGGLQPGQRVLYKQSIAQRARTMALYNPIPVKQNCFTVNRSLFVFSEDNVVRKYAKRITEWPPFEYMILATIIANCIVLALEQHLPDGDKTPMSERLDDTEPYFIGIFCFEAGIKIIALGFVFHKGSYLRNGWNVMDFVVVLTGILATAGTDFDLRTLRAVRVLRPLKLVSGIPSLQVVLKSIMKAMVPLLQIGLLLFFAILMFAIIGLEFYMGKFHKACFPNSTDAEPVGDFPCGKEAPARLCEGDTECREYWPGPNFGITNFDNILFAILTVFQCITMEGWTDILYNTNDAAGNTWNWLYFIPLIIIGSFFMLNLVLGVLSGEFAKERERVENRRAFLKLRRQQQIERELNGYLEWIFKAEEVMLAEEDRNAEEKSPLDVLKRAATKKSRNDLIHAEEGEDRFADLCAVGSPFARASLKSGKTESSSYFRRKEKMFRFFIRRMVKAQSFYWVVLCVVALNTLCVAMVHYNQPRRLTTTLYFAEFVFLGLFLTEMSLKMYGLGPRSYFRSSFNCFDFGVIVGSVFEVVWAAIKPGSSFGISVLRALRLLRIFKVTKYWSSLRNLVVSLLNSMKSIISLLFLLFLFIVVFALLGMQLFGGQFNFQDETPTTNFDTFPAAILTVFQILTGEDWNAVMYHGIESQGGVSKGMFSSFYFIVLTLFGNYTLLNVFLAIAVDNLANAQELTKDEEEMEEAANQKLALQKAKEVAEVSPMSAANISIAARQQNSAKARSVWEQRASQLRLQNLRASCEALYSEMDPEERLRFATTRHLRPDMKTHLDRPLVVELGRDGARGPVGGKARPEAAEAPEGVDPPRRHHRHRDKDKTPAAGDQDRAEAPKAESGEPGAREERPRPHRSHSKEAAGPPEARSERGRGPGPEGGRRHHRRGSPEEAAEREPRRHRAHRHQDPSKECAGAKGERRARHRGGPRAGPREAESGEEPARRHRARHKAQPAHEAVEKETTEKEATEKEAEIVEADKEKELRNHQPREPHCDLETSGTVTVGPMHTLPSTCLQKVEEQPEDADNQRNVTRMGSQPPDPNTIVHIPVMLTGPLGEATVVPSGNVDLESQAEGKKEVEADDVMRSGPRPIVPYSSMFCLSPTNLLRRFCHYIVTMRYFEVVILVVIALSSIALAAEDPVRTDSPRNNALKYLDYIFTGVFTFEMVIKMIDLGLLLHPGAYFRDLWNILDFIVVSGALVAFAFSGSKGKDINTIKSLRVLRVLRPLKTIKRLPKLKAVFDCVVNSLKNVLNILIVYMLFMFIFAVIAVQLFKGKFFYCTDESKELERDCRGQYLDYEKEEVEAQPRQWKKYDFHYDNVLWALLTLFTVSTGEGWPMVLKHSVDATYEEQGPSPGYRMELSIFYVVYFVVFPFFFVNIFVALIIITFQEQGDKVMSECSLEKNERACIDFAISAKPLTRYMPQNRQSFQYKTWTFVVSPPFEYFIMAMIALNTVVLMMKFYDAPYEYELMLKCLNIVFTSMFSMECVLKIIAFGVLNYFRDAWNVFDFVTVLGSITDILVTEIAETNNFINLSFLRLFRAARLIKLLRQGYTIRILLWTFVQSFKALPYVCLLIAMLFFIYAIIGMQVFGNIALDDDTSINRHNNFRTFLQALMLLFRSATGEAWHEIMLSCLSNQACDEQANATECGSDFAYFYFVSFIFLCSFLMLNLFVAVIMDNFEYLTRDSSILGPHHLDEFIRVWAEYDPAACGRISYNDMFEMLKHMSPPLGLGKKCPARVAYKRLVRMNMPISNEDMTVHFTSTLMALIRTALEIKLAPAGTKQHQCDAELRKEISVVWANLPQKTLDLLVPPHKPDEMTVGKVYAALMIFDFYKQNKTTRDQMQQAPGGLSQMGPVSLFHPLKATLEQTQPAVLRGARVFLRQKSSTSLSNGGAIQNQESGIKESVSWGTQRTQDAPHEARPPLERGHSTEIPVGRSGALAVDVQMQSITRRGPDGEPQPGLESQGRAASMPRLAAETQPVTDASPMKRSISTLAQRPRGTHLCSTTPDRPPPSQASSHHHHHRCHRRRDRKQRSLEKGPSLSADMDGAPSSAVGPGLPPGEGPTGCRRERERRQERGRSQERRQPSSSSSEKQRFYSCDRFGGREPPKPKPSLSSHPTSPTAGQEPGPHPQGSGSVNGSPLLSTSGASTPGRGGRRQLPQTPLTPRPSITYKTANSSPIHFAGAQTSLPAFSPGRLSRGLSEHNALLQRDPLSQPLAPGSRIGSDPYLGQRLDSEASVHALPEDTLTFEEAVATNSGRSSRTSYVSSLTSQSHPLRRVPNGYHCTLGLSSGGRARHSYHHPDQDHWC

Structure (SMILES) | IC50
Oc1c(CN2CCCCCC2)ccc2c1CCN(CCCCC=C(c1ccccc1)c1ccccc1)C2 | 2.5 µM
CN1CCc2c(ccc(CN3CCCCCC3)c2O)C1 | > 100 µM
Oc1c(CN2CCCCCC2)ccc2c1CCN(CCC(c1ccccc1)c1ccccc1)C2 | 7.4 µM
Oc1c(CN2CCCCCC2)ccc2c1CCN(CCCCCC(c1ccccc1)c1ccccc1)C2 | 1.1 µM
Oc1c(CN2CCCCCC2)ccc2c1CCN(CCCC(c1ccccc1)c1ccccc1)C2 | 0.46 µM

More lines, in order of falling IC50, values ahead:

IC50 | Structure (SMILES)
35 µM | Oc1c(CN2CCCCCC2)ccc2cnccc12
15 µM | Oc1c(CN2CCCCCC2)ccc2c1CCN(CCCCc1ccccc1)C2
10 µM | COc1ccc(CCCCN2CCc3c(ccc(CN4CCCCCC4)c3O)C2)cc1
5.1 µM | Oc1c(CN2CCCCCC2)ccc2c1CCN(CCCCc1ccc(F)cc1)C2
4.8 µM | Oc1c(CN2CCCCCC2)ccc2c1CCN(CCCCC(c1ccccc1)c1ccccc1)C2
4.4 µM | Oc1c(CN2CCCCC2)cc(Cc2cc(CN3CCCCC3)c(O)c3ncccc23)c2ccncc12
